Data taken from patent US7799821B2, “Therapeutic compounds” (Allergan, Inc., priority 2004, dated 2010).
Where two headings read alike, the source gives them in different places.

Assays:
hEP2/Gqs5 = biological target: T1, hEP2/Gqs5 (Homo sapiens, UniProt P43116); assay: FLIPR calcium signal, hEP2; type: cell-based
T1 construct: expressed in transfected cells; host or cells: HEK-293(EBNA)
In short: (§1)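 HEK-293(EBNA) cells stably expressing the recombinant human receptor were loaded with 2 μM Fluo-4 AM for 45 min and read on FLIPR at 37° C in HBSS-HEPES pH 7.4. Peak fluorescence rise was expressed relative to buffer and standard agonist controls (BW245C, PGE2 or U-46619 by receptor); compounds were run 10^−5 to 10^−11 M in duplicate, n≧3.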

human EP2 receptors = biological target: T2, human EP2 receptors (Homo sapiens, UniProt P43116); assay: Competition radioligand binding ([3H]PGE2), EP2
T2 construct: expressed in transfected cells; host or cells: HEK 293
T2 sequence (P43116 whole entry): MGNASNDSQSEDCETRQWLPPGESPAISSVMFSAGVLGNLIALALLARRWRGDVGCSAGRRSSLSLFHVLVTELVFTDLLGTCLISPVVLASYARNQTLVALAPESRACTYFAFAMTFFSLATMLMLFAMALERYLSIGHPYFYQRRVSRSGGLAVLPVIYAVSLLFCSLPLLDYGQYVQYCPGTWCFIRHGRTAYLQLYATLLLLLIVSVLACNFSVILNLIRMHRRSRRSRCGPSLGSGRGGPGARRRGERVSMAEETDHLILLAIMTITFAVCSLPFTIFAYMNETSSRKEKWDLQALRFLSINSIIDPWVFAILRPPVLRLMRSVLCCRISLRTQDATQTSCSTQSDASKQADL

hEP3A/Gqi5 = biological target: T3, hEP3A/Gqi5 (Homo sapiens, UniProt P43115); assay: FLIPR calcium signal, hEP3A; type: cell-based
T3 construct: expressed in transfected cells; host or cells: HEK-293(EBNA)
T3 sequence (P43115 1-390): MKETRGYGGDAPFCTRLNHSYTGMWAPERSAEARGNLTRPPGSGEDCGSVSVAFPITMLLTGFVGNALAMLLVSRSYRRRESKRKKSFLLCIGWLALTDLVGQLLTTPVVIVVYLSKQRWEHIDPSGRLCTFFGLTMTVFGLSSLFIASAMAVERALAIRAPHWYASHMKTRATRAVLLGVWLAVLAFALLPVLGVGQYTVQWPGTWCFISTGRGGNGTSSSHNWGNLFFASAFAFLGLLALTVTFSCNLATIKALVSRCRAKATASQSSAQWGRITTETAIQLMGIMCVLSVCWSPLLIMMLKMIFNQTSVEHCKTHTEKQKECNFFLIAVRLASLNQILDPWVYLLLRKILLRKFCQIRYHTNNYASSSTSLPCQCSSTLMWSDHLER
In short: as §1

[1] = unit inferred, other columns of the table in nM, read-out: EP2 data flipr EC50
[2] = unit inferred, read-out: EP2 data Ki
[3] = read-out: Other Receptors EC50 hEP3A
[4] = pH 6.0, unit inferred, read-out: EP2 data Ki pH 6.0

T1 sequence (P43116 whole entry): as the sequence (P43116 whole entry) above

Structure (SMILES): CCCCCC(C)c1ccc([C@@H]2[C@@H](C/C=C\CCCC(=O)O)[C@H](C#N)C[C@H]2C)cc1 (stereo partly shown)
- EC50 (hEP2/Gqs5; Table 3, third part, value outside parentheses, read-out: Ca2+ Signal-EC50 (nM) EP2): 34 nM
- Ki (human EP2 receptors; Table 3, third part, read-out: BINDING-Ki (nM) EP2): 1250 nM
- EC50 (hEP3A/Gqi5; Table 3, third part, read-out: Ca2+ Signal-EC50 (nM) EP3): 10000 nM

Structure (SMILES): CCCCCC(=O)c1ccc(N2C(=O)CC[C@@H]2CCCc2ccc(C(=O)O)s2)cc1
- EC50 (hEP2/Gqs5; [1]): 16 nM
- Ki (human EP2 receptors; [2]): 31 nM
- EC50 (hEP3A/Gqi5; [3]): 2340 nM

Structure (SMILES): CC(C)(C)c1ccc(N2C(=O)CC[C@@H]2COCc2ccc(C(=O)O)o2)cc1
- EC50 (hEP2/Gqs5; [1]): 442 nM
- Ki (human EP2 receptors; [4]): 189 nM
- Ki (human EP2 receptors; [2]): 4000 nM
- EC50 (hEP3A/Gqi5; [3]): > 10000 nM

Structure (SMILES): CC(C)(C)c1ccc(N2C(=O)CC[C@@H]2COCc2ccc(C(=O)O)s2)cc1
- EC50 (hEP2/Gqs5; [1]): 1340 nM
- Ki (human EP2 receptors; [4]): 27 nM
- Ki (human EP2 receptors; [2]): 501 nM
- EC50 (hEP3A/Gqi5; [3]): 19200 nM

Structure (SMILES): CC(C)(C)c1ccc(N2C(=O)CC[C@@H]2CCCCCCC(=O)O)cc1
- EC50 (hEP2/Gqs5; [1]): 4120 nM
- Ki (human EP2 receptors; [2]): > 10000 nM
- EC50 (hEP3A/Gqi5; [3]): 19500 nM

Structure (SMILES): CCCCCC(O)c1ccc(N2C(=O)CC[C@@H]2COCc2ccc(C(=O)O)s2)cc1 (single isomer, unassigned) [drawing 148]
- EC50 (hEP2/Gqs5; [1]): 62 nM
- Ki (human EP2 receptors; [2]): 345 nM
- EC50 (hEP3A/Gqi5; [3]): 153 nM

Structure (SMILES): CCCCCC(O)c1ccc(N2C(=O)CC[C@@H]2CCCc2ccc(C(=O)O)s2)cc1 (single isomer, unassigned) [drawing 151]
- EC50 (hEP2/Gqs5; [1]): 1.6 nM
- Ki (human EP2 receptors; [2]): 15 nM
- EC50 (hEP3A/Gqi5; [3]): 156 nM

Structure (SMILES): CCCCCCC(O)c1ccc(N2C(=O)CC[C@@H]2COCc2ccc(C(=O)O)s2)cc1 (single isomer, unassigned) [drawing 152]
- EC50 (hEP2/Gqs5; [1]): 134 nM
- Ki (human EP2 receptors; [2]): 229 nM
- EC50 (hEP3A/Gqi5; [3]): 71 nM

Structure (SMILES): CCCCCCC(O)c1ccc(N2C(=O)CC[C@@H]2CCCc2ccc(C(=O)O)s2)cc1 (single isomer, unassigned) [drawing 155]
- Ki (human EP2 receptors; [2]): 12 nM
- EC50 (hEP3A/Gqi5; [3]): 7 nM

Structure (SMILES): CCCCCCC(O)c1ccc(N2C(=O)CC[C@@H]2CCCc2ccc(C(=O)O)s2)cc1 (single isomer, unassigned) [drawing 156]
- EC50 (hEP2/Gqs5; [1]): 5 nM
- Ki (human EP2 receptors; [2]): 8 nM
- EC50 (hEP3A/Gqi5; [3]): 33 nM

Structure (SMILES): CCCCCC(O)c1ccc(N2C(=O)CC[C@@H]2COCc2ccc(C(=O)O)s2)cc1 (single isomer, unassigned) [drawing 176]
- EC50 (hEP2/Gqs5; [1]): 62 nM
- Ki (human EP2 receptors; [2]): 345 nM
- EC50 (hEP3A/Gqi5; [3]): 153 nM

Structure (SMILES): CCCCCC(O)c1ccc(N2C(=O)CC[C@@H]2COCc2ccc(C(=O)O)s2)cc1 (single isomer, unassigned) [drawing 177]
- EC50 (hEP2/Gqs5; [1]): 15 nM
- Ki (human EP2 receptors; [2]): 116 nM
- EC50 (hEP3A/Gqi5; [3]): 1200 nM

Structure (SMILES): CCCCCC(O)c1ccc(N2C(=O)CC[C@@H]2CCCc2ccc(C(=O)O)s2)cc1 (single isomer, unassigned) [drawing 178]
- EC50 (hEP2/Gqs5; [1]): 6 nM
- Ki (human EP2 receptors; [2]): 21 nM
- EC50 (hEP3A/Gqi5; [3]): 12 nM

Structure (SMILES): CCCCCC(O)c1ccc(N2C(=O)CC[C@@H]2CCCc2ccc(C(=O)O)s2)cc1 (single isomer, unassigned) [drawing 179]
- EC50 (hEP2/Gqs5; [1]): 1.6 nM
- Ki (human EP2 receptors; [2]): 15 nM
- EC50 (hEP3A/Gqi5; [3]): 156 nM

Structure (SMILES): CCCCCC(O)c1ccc(N2C(=O)CC[C@@H]2CCCc2ccc(C(=O)O)s2)cc1 (single isomer, unassigned) [drawing 180]
- EC50 (hEP2/Gqs5; [1]): 134 nM
- Ki (human EP2 receptors; [2]): 229 nM
- EC50 (hEP3A/Gqi5; [3]): 71 nM

Structure (SMILES): CCCCCCC(O)c1ccc(N2C(=O)CC[C@@H]2CCCc2ccc(C(=O)O)s2)cc1 (single isomer, unassigned) [drawing 183]
- EC50 (hEP2/Gqs5; [1]): 16 nM
- Ki (human EP2 receptors; [2]): 12 nM
- EC50 (hEP3A/Gqi5; [3]): 7 nM

Structure (SMILES): CCCCCCC(O)c1ccc(N2C(=O)CC[C@@H]2CCCc2ccc(C(=O)O)s2)cc1 (single isomer, unassigned) [drawing 184]
- EC50 (hEP2/Gqs5; [1]): 5 nM
- Ki (human EP2 receptors; [2]): 8 nM
- EC50 (hEP3A/Gqi5; [3]): 33 nM

Structure (SMILES): CCCCCC(O)c1ccc(N2C(=O)CC[C@@H]2CCCc2ccc(C(=O)O)s2)cc1 (stereo partly shown) [drawing 145]
- EC50 (hEP2/Gqs5; [1]): 5 nM
- Ki (human EP2 receptors; [2]): 23 nM
- EC50 (hEP3A/Gqi5; [3]): 155 nM

Structure (SMILES): CCCCCC(O)c1ccc(N2C(=O)CC[C@@H]2CCCc2ccc(C(=O)O)s2)cc1 (stereo partly shown) [drawing 173]
- EC50 (hEP2/Gqs5; [1]): 5 nM
- Ki (human EP2 receptors; [2]): 23 nM
- EC50 (hEP3A/Gqi5; [3]): 155 nM
